Laboratory results reported in the supplement of paper PMC3974653.
Counter-ions that a name gives are not always drawn.

Tested on: MTT (mouse pheochromocytoma)
Test: IC50 of cell viability (ATP content)
Conditions: (24 or 48 h)
Outline: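 Library compounds in DMSO (23 nl by pintool, 8 concentrations, final 0.5 nM to 46 µM) were applied for 24 or 48 hrs to MTT mouse pheochromocytoma cells that had been cultured overnight at 37°C, 5% CO2 in white 1536-well plates. Cell viability was measured by CellTiter-Glo ATP luminescence, read after 15 minutes, with positive-control wells set at 100% and DMSO wells at 0%. A four-parameter logistic fit of the normalised signals yielded the IC50.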

SMILES	IC50 of cell viability [µM]
NCCCC[C@H](NC(=O)[C@@H]1CCCN1C(=O)[C@@H]1CSSC[C@H](NC(=O)CNC(=O)CNC(=O)CN)C(=O)N[C@@H](Cc2ccc(O)cc2)C(=O)N[C@@H](Cc2ccccc2)C(=O)N[C@@H](CCC(N)=O)C(=O)N[C@@H](CC(N)=O)C(=O)N1)C(=O)NCC(N)=O [TERLIPRESSIN]	> 46
CCCCCCCCCC(=O)O[C@H]1CC[C@H]2[C@@H]3CCC4=CC(=O)CC[C@]4(C)[C@H]3CC[C@]12C [TESTOSTERONE DECANOATE]	> 46
CC(C)CCC(=O)OC1CCC2C3CCC4=CC(=O)CC[C@]4(C)C3CC[C@]12C (some centres undefined) [TESTOSTERONE ISOCAPROATE]	> 46
CC(C)=CC1C(C(=O)OCN2C(=O)\C3=C(\CCCC3)C2=O)C1(C)C (centres undefined) [TETRAMETHRINUM]	> 46
CN(C)C(=S)SC(=S)N(C)C [TETRAMETHYLTHIURAM MONOSULFIDE]	> 46
CNc1c2c(nn1C)CCCC2 [TETRIDAMINUM]	> 46
OC\1=C(O)\C(=O)\C(=C(O)/C1=O)O [TETROQUINONE]	> 46
COC1=CC=C2[C@H]3Cc4ccc(OC)c5c4[C@@]2(CCN3C)[C@H]1O5 [THEBAINE]	> 46
C/C(=C(/CCO)SS/C(CCO)=C(\C)N(C=O)Cc1cnc(C)nc1N)N(C=O)Cc1cnc(C)nc1N [THIAMINE DISULFIDE]	> 46
C[S+](=O)([O-])c1ccc([C@@H](O)[C@@H](COC(=O)CN)NC(=O)C(Cl)Cl)cc1 [THIAMPHENICOL AMINOACETATE HYDROCHLORIDE]	> 46
[Na+].CCCC(C)C1(CC=C)C(=O)N\C(=N/C1=O)[S-] (centres undefined) [THIAMYLAL SODIUM]	> 46
S=P(N1CC1)(N1CC1)N1CC1 [THIO-TEPA]	> 46
CC(=O)Nc1ccc(/C=N/NC(N)=S)cc1 [THIOACETAZONUM]	> 46
NC(=O)CCCCC1CCSS1 (centres undefined) [THIOCTIC ACID AMIDE]	> 46
OCC(O)CS (centres undefined) [THIOGLYCEROL]	> 46
NC/1=N/C2=C([NH]C=N2)C(=S)N1 [THIOGUANINE]	> 46
CCCC(C)C1(CC)C(=O)NC(=S)NC1=O (centres undefined) [THIOPENTAL SODIUM]	> 46
CSc1ccc2c(c1)N(CCC1CCCCN1C)c1ccccc1S2 (centres undefined) [THIORIDAZINE]	> 46
COc1ccc(CN(CCN(C)C)c2ncccn2)cc1.Cl [THONZYLAMINE HYDROCHLORIDE]	> 46
CC(O)C(N)C(=O)O (centres undefined) [THREONINE]	> 46
Cc1cc(OI)c(C(C)C)cc1-c1cc(C(C)C)c(OI)cc1C [THYMOL IODIDE]	> 46
CC(C)C(NC(=O)C(CC(=O)O)NC(=O)C(CCCCN)NC(=O)C(N)CCCNC(=N)N)C(=O)NC(Cc1ccc(O)cc1)C(=O)O (centres undefined) [THYMOPENTINUM]	> 46
C=C[C@]1(C)C[C@@H](OC(=O)CSCCN(CC)CC)[C@]2(C)C(C)CC[C@]3(CCC(=O)[C@H]32)[C@@H](C)[C@@H]1O (some centres undefined) [TIAMULIN]	> 46
CN1c2ccccc2C(NCCCCCCC(=O)[O][Na])c2ccc(Cl)cc2[S+]1(=O)[O-] (centres undefined) [TIANEPTINUM]	> 46
C#C[C@]1(O)CC[C@H]2[C@H]3[C@H](CC[C@@]21C)C1=C(CC(=O)CC1)C[C@@H]3C [TIBOLONE]	> 46
Clc1ccccc1CN1CCc2sccc2C1 [TICLOPIDINE]	> 46
CCN(CC)CCSC(=O)C(c1ccccc1)c1ccccc1 [TIFENAMILUM]	> 46
CCC1OC(=O)C[C@H](O)C(C)[C@@H](O[C@@H]2OC(C)C(O)[C@H](N(C)C)C2O)C(CCN2CC(C)CC(C)C2)CC(C)C(=O)/C=C/C(C)=C\[C@@H]1COC1OC(C)C(O)C(OC)C1OC (some centres undefined) [TILMICOSIN]	> 46
CCN(CC)CCOc1ccc2c(c1)C(=O)c1cc(OCCN(CC)CC)ccc1-2 [TILORONE]	> 46
